Assay results published in ChEMBL document CHEMBL3396963, “Scaffold hopping: exploration of acetanilide-containing uracil analogues as potential NNRTIs” (Bioorg Med Chem, 2015).
The source made the active and inactive calls. The calls are words filed in the database; no cut-off is given here.

Key:
[1] = test system: Human immunodeficiency virus 1; test: Antiviral activity against HIV1 3B infected in human MT4 cells assessed as inhibition of virus-induced cytopathogenic effect; type: functional, organism-based; settings: Human immunodeficiency virus 1, 3B
[2] = Cytotoxicity against human MT4 cells assessed as reduction in cell viability; type: cell-based
[3] = Selectivity index, ratio of CC50 for human MT4 cells to EC50 for HIV1 3B infected in human MT4 cells; type: toxicity, cell-based; settings: HIV-1 3B infected MT4 cells, read-out: Ratio CC50/EC50
[4] = biological target: T1, Human immunodeficiency virus type 1 reverse transcriptase (Human immunodeficiency virus 1, UniProt Q72547); test: Inhibition of HIV1 recombinant wild type reverse transcriptase p66/p51 pre-incubated with compound before enzyme addition using poly(rA) template and measured after 40 mins by picogreen based spectrofluorometry
[5] = test system: Human immunodeficiency virus 1; test: Antiviral activity against HIV1 3B expressing reverse transcriptase K103N/Y181C mutant infected in human MT4 cells assessed as inhibition of virus-induced cytopathogenic effect; type: functional, organism-based
[6] = test system: Human immunodeficiency virus 1; test: Antiviral activity against HIV1 3B infected in human MT4 cells exposed to MT4 cell CC50 level of compound added after 1 to 25 hrs post virus infection following 1 hr virus adsorption period assessed as inhibition of virus production measured at 31 hrs post infection by p24 ELISA method; type: functional, organism-based
[7] = test system: Human immunodeficiency virus 1; test: Antiviral activity against HIV1 3B infected in human MT4 cells exposed to MT4 cell CC50 level of compound added after 1 to 25 hrs post virus infection following 1 hr virus adsorption period assessed as assessed as inhibition of virus-induced cytopathogenic effect; type: functional, organism-based
[8] = biological target: T1, Human immunodeficiency virus type 1 reverse transcriptase; test: Inhibition of HIV1 ribonuclease H pre-incubated with compound before enzyme addition using RNA/DNA heteroduplex and measured after 60 mins by picogreen based spectrofluorometry
[9] = biological target: Human immunodeficiency virus type 1 reverse transcriptase (Human immunodeficiency virus 1, UniProt Q72547, L100I); test: Inhibition of HIV1 reverse transcriptase L100I mutant using radioactively-labeled […] substrate and activated DNA as template-primer complex
[10] = biological target: Human immunodeficiency virus type 1 reverse transcriptase (Human immunodeficiency virus 1, UniProt Q72547, K103N); test: Inhibition of HIV1 reverse transcriptase K103N mutant using radioactively-labeled […] substrate and activated DNA as template-primer complex
[11] = biological target: Human immunodeficiency virus type 1 reverse transcriptase (Human immunodeficiency virus 1, UniProt Q72547, V106A); test: Inhibition of HIV1 reverse transcriptase V106A mutant using radioactively-labeled […] substrate and activated DNA as template-primer complex
[12] = biological target: Human immunodeficiency virus type 1 reverse transcriptase (Human immunodeficiency virus 1, UniProt Q72547, Y181C); test: Inhibition of HIV1 reverse transcriptase Y181C mutant using radioactively-labeled […] substrate and activated DNA as template-primer complex
[13] = biological target: Human immunodeficiency virus type 1 reverse transcriptase (Human immunodeficiency virus 1, UniProt Q72547, G190A); test: Inhibition of HIV1 reverse transcriptase G190A mutant using radioactively-labeled […] substrate and activated DNA as template-primer complex
[14] = biological target: Human immunodeficiency virus type 1 reverse transcriptase (Human immunodeficiency virus 1, UniProt Q72547, K103N/Y181C); test: Inhibition of HIV1 reverse transcriptase K103N/Y181C mutant using radioactively-labeled […] substrate and activated DNA as template-primer complex

Compound	EC50 [1]	CC50 [2]	selectivity ratio [3]	Ki [4]	IC50 [4]	inhibition [5]	inhibition [6]	inhibition [7]	IC50 [8]	Ki [9]	Ki [10]	Ki [11]	Ki [12]	Ki [13]	Ki [14]	IC50 ([8]; read-out: IC50)
C=CCn1c(=O)ccn(Cc2ccccc2OCC(=O)Nc2ccccc2Cl)c1=O	> 30.6 µM	30.6 µM	< 1	> 100 µM												
Cn1c(=O)ccn(Cc2ccccc2OCC(=O)Nc2ccccc2Cl)c1=O	> 141 µM	141 µM	< 1	> 100 µM												
Cn1c(=O)ccn(Cc2ccccc2OCC(=O)Nc2cccc(Cl)c2)c1=O	> 288 µM	288 µM	< 1	> 100 µM												
Cc1ccnc2c1NC(=O)c1cccnc1N2C1CC1 [NEVIRAPINE]		> 15 µM														
Cn1c(=O)ccn(Cc2ccccc2OCC(=O)Nc2cc(Cl)ccc2Cl)c1=O	> 29.5 µM	29.5 µM	< 1	> 100 µM												
Cc1ccccc1NC(=O)COc1ccccc1Cn1ccc(=O)n(C)c1=O	> 152 µM	152 µM	< 1	> 100 µM												
COc1ccccc1NC(=O)Cn1ccc(=O)n(Cc2cc(C)cc(C)c2)c1=O	14.5 µM	227 µM	16		211 µM	inactive	inactive	inactive	Not Active							
Cc1cc(C)cc(Cn2c(=O)ccn(CC(=O)NCc3ccccc3)c2=O)c1	> 191 µM	191 µM	< 1		194 µM	inactive	inactive	inactive	Not Active							
Cn1c(=O)c(Cl)cn(Cc2ccccc2OCC(=O)Nc2ccccc2Cl)c1=O	> 9.37 µM	9.37 µM	< 1	> 100 µM												
Cn1c(=O)c(F)cn(Cc2ccccc2OCC(=O)Nc2ccccc2Cl)c1=O	> 30.3 µM	30.3 µM	< 1	> 100 µM												
O=C1Nc2ccc(Cl)cc2[C@@](C#CC2CC2)(C(F)(F)F)O1 [EFAVIRENZ]		> 6 µM														
O=C(Cn1ccc(=O)n(Cc2cccc3ccccc23)c1=O)Nc1ccccc1Cl	7.94 µM	207 µM	26		44.5 µM	inactive	inactive	inactive	Not Active							
Cc1cc(C)cc(Cn2c(=O)ccn(CC(=O)Nc3cccc(C)c3C)c2=O)c1	35.8 µM	276 µM	8		> 300 µM	inactive	inactive	inactive	Not Active							
Cc1cc(C)cc(Cn2c(=O)ccn(CC(=O)Nc3ccccc3Cl)c2=O)c1	1.71 µM	28.5 µM	17		15.7 µM	inactive	inactive	inactive	Not Active							
Cc1cn(Cc2ccccc2OCC(=O)Nc2ccccc2Cl)c(=O)n(C)c1=O	> 14.8 µM	14.8 µM	< 1	> 100 µM												
Cn1c(=O)ccn(Cc2ccccc2OCC(=O)Nc2ccc(Cl)cc2)c1=O	> 100 µM	100 µM	< 1	> 100 µM												
Cn1c(=O)ccn(Cc2ccccc2OCC(=O)Nc2ccccc2)c1=O	> 153 µM	153 µM	< 1	> 100 µM												
Cc1cc(C)cc(Cn2c(=O)ccn(CC(=O)Nc3ccccc3C)c2=O)c1	7.68 µM	292 µM	38		68.8 µM	inactive	inactive	inactive	Not Active							
Cc1cc(C)cc(Cn2c(=O)ccn(CC(=O)Nc3cccc(Cl)c3)c2=O)c1	29.5 µM	167 µM	6		114 µM	inactive	inactive	inactive	Not Active							
CCCn1c(=O)ccn(Cc2ccccc2OCC(=O)Nc2ccccc2Cl)c1=O	> 25.4 µM	25.4 µM	< 1	> 100 µM												
Cc1cc(Br)cc(Cn2c(=O)ccn(CC(=O)Nc3ccccc3)c2=O)c1	2.01 µM	33.1 µM	17		12.1 µM	inactive	inactive	inactive	Not Active							
O=C(Cn1ccc(=O)n(Cc2cc(Cl)cc(Cl)c2)c1=O)Nc1ccccc1Cl	3.26 µM	31.1 µM	10	4.5 µM	12.7 µM	inactive	inactive	inactive		15.9 µM	63.3 µM	67.6 µM	15.4 µM	20 µM	69.9 µM	149 µM
Cc1cc(C)cc(Cn2c(=O)ccn(CC(=O)Nc3ccccc3)c2=O)c1	9.68 µM	242 µM	25		79.3 µM	inactive	inactive	inactive	Not Active							
Cc1cc(C)cc(Cn2c(=O)ccn(CC(=O)Nc3ccc(Cl)cc3)c2=O)c1	7.29 µM	77.5 µM	11		62.9 µM	inactive	inactive	inactive	Not Active							
